Source: PMC11056982, “Paraptotic Cell Death as an Unprecedented Mode of Action Observed for New Bipyridine-Silver(I) Compounds Bearing Phosphane Coligands” (Journal of Medicinal Chemistry, 2024)
Marks after values point to notes of the source that are not given here.

Key:
SK-OV-3/CBP = assay: MTT viability assay in carboplatin-resistant SK-OV-3/CBP cells; assay type: cell-based, human; details: 72 h; for relative resistance (IC50 SK-OV-3/CBP divided by IC50 SK-OV-3): resistant subline vs parental line; for IC50: MTT, carboplatin-resistant subline, mean ± SD
Protocol: (§1) Cells were seeded (2 × 10^4 cells/well for HCT116, HCT116/OxR, 3 × 10^4 cells/well for HCT116 p53KO, 4 × 10^4 cells/well for MES-OV, SK-OV-3, and their respective CBP resistant counterparts) in 100 μL/well in 96-well plates and allowed to attach for 24 h at 37 °C and 5% CO2. Compounds were first dissolved in DMSO to a 10 mM stock solution and then further diluted in a growth medium (DMSO concentration <1%). After 24 h, cells were treated with 100 μL of different drugs dilutions in triplicates with the final concentrations of 0, 0.01, 0.05, 0.075, 0.1, 0.5, 0.75, 1, 2.5, 5, 7.5, and 10 μM depending on the compound and the cell line.

HCT116 WT/OxR = assay: MTT viability assay in oxaliplatin-resistant HCT116 WT/OxR cells; assay type: cell-based, human; details: 72 h; for relative resistance (IC50 HCT116 WT/OxR divided by IC50 HCT116 WT): resistant subline vs parental line; for IC50: MTT, oxaliplatin-resistant subline, mean ± SD
Protocol: as §1

MES-OV/CBP = assay: MTT viability assay in carboplatin-resistant MES-OV/CBP cells; assay type: cell-based, human; details: 72 h; for relative resistance (IC50 MES-OV/CBP divided by IC50 MES-OV): resistant subline vs parental line; for IC50: MTT, carboplatin-resistant subline, mean ± SD
Protocol: as §1

MES-OV = assay: MTT viability assay in MES-OV ovarian carcinoma cells; assay type: cell-based, human; details: for cancer cells killed at lowest tested concentration: MES-OV, 0.05 μM; for cancer cells killed at lowest tested concentration / IC50: 72 h; for IC50: MTT, mean ± SD
Protocol: as §1

recombinant rat TrxR = biological target: T1, recombinant rat TrxR (Rattus norvegicus, UniProt O89049); assay: Inhibition of mammalian TrxR (microplate reader-based DTNB assay); assay type: biochemical; details: cell-free assay
T1 construct: purchased Cayman Chemical
T1 sequence (O89049 1-499): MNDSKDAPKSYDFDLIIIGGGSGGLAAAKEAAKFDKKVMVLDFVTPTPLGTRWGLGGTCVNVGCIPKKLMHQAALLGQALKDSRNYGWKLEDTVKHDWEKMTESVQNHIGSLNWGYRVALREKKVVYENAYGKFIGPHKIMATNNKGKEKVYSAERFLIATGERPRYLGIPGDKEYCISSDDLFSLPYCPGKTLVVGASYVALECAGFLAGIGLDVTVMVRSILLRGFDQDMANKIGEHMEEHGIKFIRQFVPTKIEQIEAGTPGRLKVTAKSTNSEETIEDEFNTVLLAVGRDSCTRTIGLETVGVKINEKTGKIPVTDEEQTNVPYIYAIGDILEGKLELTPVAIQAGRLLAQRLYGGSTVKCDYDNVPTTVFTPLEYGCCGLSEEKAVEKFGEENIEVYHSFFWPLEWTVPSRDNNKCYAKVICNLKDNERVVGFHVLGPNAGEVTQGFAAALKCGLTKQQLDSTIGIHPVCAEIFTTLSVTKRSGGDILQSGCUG
Protocol: To determine the inhibition of mammalian TrxR, an established microplate reader-based assay was performed. For this purpose, commercially available recombinant rat TrxR (from Cayman Chemical) was used and diluted with distilled water to achieve a concentration of 0.12 U mL^–1. The compounds were freshly dissolved as stock solutions in DMSO. Aliquots (25 μL) of the enzyme solution and 25 μL of potassium phosphate buffer (pH 7.0) containing the compounds in graded concentrations (1% DMSO) were mixed. Positive controls were composed of 25 μL aliquots of the enzyme solution mixed with 25 μL 1% DMSO in buffer solution (no compounds). The final concentration of DMSO was 0.5% v/v in all samples. The blank solution was the highest used concentration of the compound in 0.5% DMSO in buffer solution (no enzyme). All resulting solutions were incubated with moderate shaking for 75 min at 37 °C in a 96-well plate. […] After proper mixing, the formation of 2-nitro-5-thiobenzoate (5-TNB) was monitored with a microplate reader at 405 nm 10 times in 35 s intervals for about 6 min. The increase in 5-TNB concentration over time followed a linear trend, and the enzymatic activities were calculated as the slopes (increase in absorbance per second) thereof. […] For the absorption measurements in the enzyme assay, a PerkinElmer 2030 Multilabel Reader VICTORTMX4 was used.

MES-OV cells [1] = assay: Mitochondrial membrane potential by JC-1 stain (flow cytometry); assay type: cell-based, human; details: 24 h
Protocol: Cells were seeded in a density of (2–4) × 10^5 cells/well in six-well plates and in 1 mL culture medium containing 10% FBS. After 24 h recovery, cells were treated with the indicated compounds and concentrations. Next, the supernatant was collected followed by trypsinization of the cells and centrifugation at 300g for 5 min. In the following protocols, cells were stained with annexin V (AV) and propidium iodide (PI) for cell death analysis, with only PI for cell cycle analysis, or with 10 μg mL^–1 JC-1 for evaluation of the mitochondrial membrane potential as previously described.[54],[55]

MES-OV cells [2] = assay: ROS detection by DCF-DA flow cytometry in MES-OV; assay type: cell-based, human; details: 24 h, 2.5 μM
Protocol: Cells were seeded 5 × 10^5 cells/mL in six-well plates. After 24 h treatment with the indicated concentration, cells were incubated with 10 μM 2′,7′-dichlorofluorescein diacetate (DCFH-DA, Sigma-Aldrich) in Hank’s balanced salt solution for 1 h at 37 °C. Subsequently, flow cytometry (with BD LSR Fortessa instrument, BD Biosciences, Franklin Lakes, NJ, USA) was performed to measure the median fluorescence signal of 20,000 single cells per sample. FlowJo (BD Biosciences, San Jose, CA, USA) and GraphPad Prism software (GraphPad Software Inc., San Diego, CA, USA) were to analyze the data.

[3] = Stability in PBS by LC-ESI(+)-HRMS/MS; assay type: physicochemical; details: 80 μM in PBS, monitored 48 h
Protocol: For the stability evaluation in PBS, 10 mM solutions of complexes 1, 4, and 7 were first prepared in DMSO. Two microliters of this solution were then added to PBS (250 μL) for a total concentration of 80 μM. Following centrifugation for 10 min at 3000 rpm, the resulting solutions were monitored by LC-ESI(+)-MS and LC-ESI(+)-HRMS for a period of 48 h.

MES-OV cells [4] = assay: TEM analysis of subcellular morphology; assay type: cell-based, human; details: 24 h treatment
Protocol: MES-OV Cells were seeded (8 × 10^5 cells/mL) in […] in six-well plates. After 24 h, cells were treated with the selected compounds at the indicated concentration for another 24 h. Afterward, cells were collected, pelleted, and fixed in a solution of 2.5% glutaraldehyde and 2% paraformaldehyde in 0.1 M cacodylate buffer (pH 7.4) for 2 h at room temperature. Samples were subsequently washed 3 × 10 min in cacodylate buffer and postfixed in 1% osmium tetroxide for 1 h. After 3 × 10 min washing in cacodylate buffer, samples were dehydrated in an ethanol series (30–100%, 10 min each) and pure acetone (2 × 10 min) and gradually embedded in Epon 812 resin (Serva). Sections (40–50 nm) were prepared with a Leica UC7 ultramicrotome, mounted on copper mesh grids, and contrasted with 1% uranyl acetate (7 min) and 3% lead citrate (3 min). Imaging was performed with a Tecnai G2 20 transmission electron microscope at 80 kV equipped with an FEI Eagle 4K CCD camera (Center for Anatomy and Cell Biology). Image processing was performed in Fiji[57] using the CLAHE filter (enhance local contrast).

MES-OV cells [5] = assay: Phase-contrast microscopy of cytoplasmic vacuoles; assay type: cell-based, human; details: 6 and 24 h treatment
Protocol: Cells were seeded 5 × 10^5/well in six-well plates after 24 h recovery treatment with compounds 1, 4, and 7 was performed with the indicated concentrations. After 6 and 24 h, phase-contrast images of the cells were taken with a Zeiss Primovert microscope (20× magnification). To determinate the percentage of vacuolated cells, images (three images each condition) were analyzed by ImageJ, and vacuolated cells were counted.

SK-OV-3 = assay: MTT viability assay in SK-OV-3 ovarian carcinoma cells; assay type: cell-based, human; details: 72 h, mean ± SD of three independent experiments
Protocol: as §1

HCT116 WT = assay: MTT viability assay in HCT116 WT colon carcinoma cells; assay type: cell-based, human; details: 72 h, mean ± SD
Protocol: as §1

HCT116 p53KO = assay: MTT viability assay in p53-deleted HCT116 p53KO cells; assay type: cell-based, human; details: 72 h, p53-deleted subclone, mean ± SD
Protocol: as §1

F331 = assay: MTT viability assay in nonmalignant fibroblasts F331; assay type: cell-based, human; details: 72 h, mean ± SD

IC50 (SK-OV-3) [µM] | IC50 (SK-OV-3/CBP) [µM] | IC50 (MES-OV) [nM] | IC50 (HCT116 WT) [nM] | IC50 (HCT116 WT/OxR) [nM] | IC50 (HCT116 p53KO) [nM] | Compound | relative resistance (IC50 SK-OV-3/CBP divided by IC50 SK-OV-3) (SK-OV-3/CBP) | relative resistance (IC50 HCT116 WT/OxR divided by IC50 HCT116 WT) (HCT116 WT/OxR) | IC50 (MES-OV/CBP) [nM] | IC50 (F331) [µM] | other results
 |  |  |  |  |  | Cc1ccnc(-c2cc(C)ccn2)c1.O=S(=O)([O-])C(F)(F)F.[Ag+].c1ccc(P(c2ccccc2)c2ccccc2)cc1 [Compound 2, [Ag(4,4′-CH3-2,2′-bipy)(PPh3)][CF3SO3]] | 1.5^n.s. | 0.9^n.s. |  |  | 
 |  |  |  |  |  | O=S(=O)([O-])C(F)(F)F.OCc1ccnc(-c2cc(CO)ccn2)c1.[Ag+].c1ccc(P(c2ccccc2)c2ccccc2)cc1 [Compound 3, [Ag(4,4′-CH2OH-2,2′-bipy)(PPh3)][CF3SO3]] | 1.4^n.s. | 0.7^n.s. |  |  | relative resistance (IC50 MES-OV/CBP divided by IC50 MES-OV) (MES-OV/CBP): 0.8^n.s.
 |  |  |  |  |  | O=S(=O)([O-])C(F)(F)F.[Ag+].c1ccc(-c2ccccn2)nc1.c1ccc(P(CCP(c2ccccc2)c2ccccc2)c2ccccc2)cc1 [Compound 4, [Ag(2,2′-bipy)(dppe)][CF3SO3]] | 0.8^n.s. | 0.9^n.s. |  |  | cancer cells killed at lowest tested concentration (MES-OV): more than 50%; TrxR inhibition strength relative to 7 (recombinant rat TrxR): 10 fold; cells with mitochondrial depolarization (low Δψ fraction) (MES-OV cells [1]; 10 μM): 50%; ROS levels increase (peak) (MES-OV cells [2]): ~5 fold; stability in PBS [3]: immediate rearrangement of the ligands to afford a mixture between AgP2 and AgN2 species; vacuole diameter (TEM) (MES-OV cells [4]): 300–1500 nm; cytoplasmic vacuole formation (phase contrast) (MES-OV cells [5]): induced pronounced cytoplasmic vacuoles only after 24 h incubation
6.5 ± 1.66 | 5.52 ± 2.2 | < 50 | 640 ± 60 | 540 ± 110 | 490 ± 140 | [Ag(4,4′-CH2OH-2,2′-bipy)(dppe)][CF3SO3] [Compound 6] | 0.8^n.s. | 0.8^n.s. | < 50 | > 10 | cancer cells killed at lowest tested concentration (MES-OV): more than 50%
6.86 ± 1.55 | 6.5 ± 1.29 | 60 ± 30 | 740 ± 60 | 750 ± 80 | 430 ± 50 | [Ag(4,4′-CH3-2,2′-bipy)(dppe)][CF3SO3] [Compound 5] | 0.9^n.s. | 1.0^n.s. | 60 ± 30 | 8.52 ± 0.9 | relative resistance (IC50 MES-OV/CBP divided by IC50 MES-OV) (MES-OV/CBP): 1.0^n.s.
 | 5.97 ± 1.42 | < 50 | 350 ± 40 | 380 ± 50 | 340 ± 10 | [Ag(dppe)2][CF3SO3] [Compound 7] |  | 1.1^n.s. | 50 ± 20 | 5.78 ± 0.5 | activity relative to 4 after 24 h (MES-OV; 24 h MTT (Table S2)): about twofold more active than 4; cells with mitochondrial depolarization (low Δψ fraction) (MES-OV cells [1]; 1 μM): 30%; cells with mitochondrial depolarization (low Δψ fraction) (MES-OV cells [1]; 10 μM): 90%; ROS levels increase (peak) (MES-OV cells [2]): ~5 fold; stability in PBS [3]: stable under these conditions; diameter of big vacuoles (TEM) (MES-OV cells [4]): up to 7.5 μm; cytoplasmic vacuole formation (phase contrast) (MES-OV cells [5]): formation of cytoplasmic vacuoles near the nucleus within the cytoplasm was observed

Compound | IC50 (SK-OV-3) [µM] | IC50 (SK-OV-3/CBP) [µM] | IC50 (MES-OV) [nM] | IC50 (HCT116 WT) [nM] | IC50 (HCT116 WT/OxR) [nM] | IC50 (HCT116 p53KO) [nM] | relative resistance (IC50 SK-OV-3/CBP divided by IC50 SK-OV-3) (SK-OV-3/CBP) | relative resistance (IC50 HCT116 WT/OxR divided by IC50 HCT116 WT) (HCT116 WT/OxR) | IC50 (MES-OV/CBP) [nM] | IC50 (F331) [µM] | other results
N.N.O=C([O-])C1(C(=O)[O-])CCC1.[Pt+2] [carboplatin, reference compound] | 56.5 ± 15.4 | 89.9 ± 5.64 | 44300 ± 7090 |  |  |  | 1.6* |  | 94700 ± 9240 |  | 
O=C1[O][Pt]2([NH][C@@H]3CCCC[C@H]3[NH]2)[O]C1=O [oxaliplatin, reference compound] |  |  |  | 720 ± 180 | > 10000 | 2370 ± 450 |  | >14** |  |  | 
